The nature of series [1]: Functional assay to measure dose dependent changes in cell viability from drug treatment in Vero E6 miRFP670 cells (cotreated with P-gp inhibitor, CP100356) that are infected with Dengue virus type 2 New Guinea C. […] Cytotoxicity is reported via via analysis of DAPI count using high-content imager. The assay has been performed by KU Leuven. Type of series: toxicity, cell-based, Vero C1008. The settings on record: chlorocebus sabaeus.

A short description of series [2]: Functional CPE-based assay to measure dose dependent changes in cell viability from drug treatment in Huh-7 cells. Cells are treated with antiviral candidates that have been serially diluted. Cytotoxicity is reported via analysis of MTT/ MTS assays in uninfected cells. The assay has been performed by National Institute of Allergy and Infectious Diseases. The class given is toxicity. The following applies: human. A general note: Formazan colour is commonly taken as a measure of viable cells.

The nature of series [3]: Functional metabolic assay to measure dose dependent changes in cell viability from drug treatment in Vero E6/TMPRSS2 cells (cotreated with P-gp inhibitor, Elacridar). […] Cytotoxicity is reported via measuring absorbance and analysis of MTT/MTS assays in uninfected cells. The assay has been performed by Icahn School of Medicine at Mount Sinai. The class given is toxicity, cell-based, VeroE6/TMPRSS2. The following applies: chlorocebus sabaeus, p-gp concentration 2 uM.

The nature of series [4]: Functional metabolic assay to measure dose dependent changes in cell viability from drug treatment in Vero E6/TMPRSS2 cells. Cells are treated with antiviral candidates that have been serially diluted. Cytotoxicity is reported via measuring absorbance and analysis of MTT/MTS assays in uninfected cells. The assay has been performed by Icahn School of Medicine at Mount Sinai. Type of series: toxicity, cell-based, VeroE6/TMPRSS2. The following applies: chlorocebus sabaeus; for CC50: Vero E6/TMPRSS2 cells; for CC10: veroe6/tmprss2.

A short description of series [5]: Functional CPE-based assay to measure dose dependent changes in cell viability from drug treatment in Vero E6 miRFP670 cells. Cells are treated with antiviral candidates that have been serially diluted. Cytotoxicity is reported via analysis of MTS assays in uninfected cells. The assay has been performed by KU Leuven. The settings on record: chlorocebus sabaeus. The class given is toxicity, Vero C1008.

A short description of series [6]: Functional assay to measure dose dependent changes in cell viability from drug treatment in Vero E6 miRFP670 cells that are infected with Dengue virus type 2 New Guinea C. Cells are treated with antiviral candidates that have been serially diluted. Cytotoxicity is reported via via analysis of DAPI count using high-content imager. The assay has been performed by KU Leuven. Type of series: toxicity, cell-based, Vero C1008. The following applies: chlorocebus sabaeus.

Series [7] can be described thus: Functional CPE-based assay to measure dose dependent changes in cell viability from drug treatment in Vero E6 miRFP670 cells (cotreated with P-gp inhibitor, CP100356). Cells are treated with antiviral candidates that have been serially diluted. Cytotoxicity is reported via analysis of MTS assays in uninfected cells. The assay has been performed by KU Leuven. The settings on record: chlorocebus sabaeus. Type of series: toxicity, Vero C1008.

Series [8] is described as follows: Functional metabolic assay to measure dose dependent changes in cell viability from drug treatment in HeLa cells. Cells are treated with antiviral candidates that have been serially diluted. Cytotoxicity is reported via analysis of MTT/MTS assays in uninfected cells. The assay has been performed by KU Leuven. Type of series: toxicity, cell-based. The settings on record: human.

Setting [9] is: with CP100356 (P-gp inhibitor, concentration not stated), p-gp concentration 500 nM.
The mark [10] stands for this setting: Vero E6/TMPRSS2 cells, with Elacridar (P-gp inhibitor, concentration not stated).
[11] abbreviates: vero c1008, p-gp concentration 100 nM.
Setting [12] is: vero c1008, p-gp concentration 500 nM.
The mark [13] stands for this setting: Vero E6 miRFP670 cells, with CP100356 (P-gp inhibitor, concentration not stated), p-gp concentration 500 nM.

Usually CC50 stands for the concentration at which the toxic effect on the cells reaches its halfway point.

Each structure is given as a SMILES string. Several values for one entry are separate records, joined by “and”; a condition that tells them apart may be missing. Equal values may be shown once.

For `CCCCCC(=O)N[C@H](C(=O)NCc1cccc(CN)c1)c1ccc(OCc2ccccc2)cc1`, the CC50 is 2.32 µM in series [1] (setting [9]) and 18 µM in series [2].
Take `CCCCCC(=O)N[C@H](C(=O)Nc1ccc2[nH]ncc2c1)c1ccc(OCc2ccccc2)cc1`: the CC50 is over 10 µM in series [1] (setting [9]) and 32 µM in series [2].
Take `CCCCCC(=O)N[C@H](C(=O)Nc1ccc(C(N)=O)cc1)c1ccc(OCc2ccccc2)cc1`: the CC50 in series [1] (setting [9]) was over 10 µM; in series [2], 32 µM.
With `NCc1ccc(-c2ncc(OCC3CCNCC3)nc2-c2ccc(-c3ccoc3)cc2)cc1`, the CC50 was 1.7 µM in series [1] (setting [9]), 49.9 µM in series [3] (setting [10]), over 50 µM in series [4] and 5.5 µM in series [2]. The CC10 in series [3] (veroe6/tmprss2) was 39.762 µM; in series [4] it was over 50 µM.
Regarding `CCCC[C@H](NC(C)=O)C(=O)N[C@H](C(=O)NCc1ccc(C(N)=O)cc1)c1ccc(OCc2ccccc2)cc1`, the CC50 is over 10 µM in series [1] (setting [9]), over 50 µM in series [3] (setting [10]) and 15 µM in series [2]. For the same molecule, the CC10 in series [3] (veroe6/tmprss2) was over 50 µM.
In the case of `NCc1ccc(-c2ncc(OCC3CCNCC3)nc2-c2ccc(C3CCOCC3)cc2)cc1`, the CC50 in series [1] (setting [9]) is over 10 µM; in series [2] it was 32 µM.
Take `CCCCCC(=O)N[C@H](C(=O)N1CCCCC1)c1ccc(OCc2ccccc2)cc1`: the figures for the CC50 in series [1] (setting [9]) and in series [2] were over 10 µM and 19 µM, respectively.
`O=C(Nc1ccc2c(c1)B(O)OC2)c1cccc(OCc2c(Cl)cccc2Cl)c1`: the figures for the CC50 in series [1] (setting [9]), in series [4] and in series [2] were over 10 µM, over 50 µM and 1.9 µM, respectively. For the same molecule, the CC10 in series [4] was over 50 µM.
With `CC1(C)Cc2sc(NC(=O)Cc3ccc(S(N)(=O)=O)cc3)c(C#N)c2CN1CC1CCCCC1`, the CC50 in series [5] (Vero E6 miRFP670 cells) is over 50 µM; in series [2], 16 µM.
As for `O=C(Nc1ccc2c(c1)CNC2)c1cc(Cl)cc2[nH]ncc12`, the CC50 is 5.47 µM in series [1] (setting [11]); under 0.023 µM in series [3] (setting [10]); 6.72 µM in series [6]; over 50 µM in series [7] (Vero E6 miRFP670 cells, with CP100356 (P-gp inhibitor, concentration not stated), p-gp concentration 100 nM); 49.7 µM in series [5] (Vero E6 miRFP670 cells); over 50 µM in series [5] (vero c1008). The CC10 in series [3] (veroe6/tmprss2) is over 50 µM.
With `NCc1cccc(NC(=O)C[C@@H](NC(=O)OCc2ccccc2)c2ccc(OCc3ccccc3)cc2)c1`, the CC50 was over 10 µM in series [1] (setting [9]) and 6.1 µM in series [2].
Taken in the same sequence, the figures for `NCc1cccc(NC(=O)[C@@H](NC(=O)OCc2ccccc2)c2ccc(OCc3ccccc3)cc2)c1` were 5.95 µM and 18 µM.
Taken in the same sequence, the figures for `COc1cc(Cc2c(-c3ccc(F)cc3)noc2C)nc(N2CCNCC2)n1` were over 10 µM and 18 µM.
Regarding `O=C(O)c1cc(Oc2ccc(F)cc2)c(F)cc1NS(=O)(=O)c1ccc(Oc2ccccc2Cl)cc1`, the CC50 was 5.31 µM in series [1] (setting [9]), over 50 µM in series [3] (setting [10]), 44 µM in series [3] (veroe6/tmprss2) and 20 µM in series [2].
The matching figures for `c1ccc2sc(C3CCN(Cc4c[nH]c5ccccc45)CC3)nc2c1`: 5.31 µM, 49.2 µM, over 50 µM and 18 µM.
`CC(C)CNC(=O)c1cc(Cl)c(F)cc1NS(=O)(=O)c1ccc(Oc2ccccc2Cl)cc1`: the CC50 in series [1] (setting [12]) was 5.35 µM; in series [1] (setting [9]) it was over 10 µM; in series [3] (setting [10]), 49.4 µM; in series [3] (veroe6/tmprss2) it was 38.1 µM; in series [4] it was over 50 µM; in series [5] (Vero E6 miRFP670 cells) it was 4.96 µM. Besides, the CC50 was 5.79 µM and 3.21 µM in series [5] (vero c1008); 3.1 µM in series [2]. The molecule also gave a CC10 in series [4] of over 50 µM.
As for `CC(C)CNC(=O)c1cc(Cl)ccc1NS(=O)(=O)c1ccc(Oc2ccccc2Cl)cc1`, the CC50 was over 10 µM in series [1] (setting [9]); over 50 µM in series [3] (veroe6/tmprss2); over 50 µM in series [4]; 4.76 µM in series [5] (Vero E6 miRFP670 cells); 6.5 µM in series [2]. This molecule came in with a CC10 in series [4] of over 50 µM.
`O=C(Nc1ccc2c(c1)CNC2)c1ccnc2[nH]ccc12` gave a CC50 in series [8] (HeLa cells) of over 50 µM. The molecule also registered a CC10 in series [8] (hela) of over 50 µM.
For `c1cc(C2CCN(Cc3c[nH]c4ccccc34)CC2)c2ccncc2c1`, the CC50 in series [1] (setting [12]) is over 50 µM; in series [3] (setting [10]), over 50 µM; in series [4], over 50 µM; in series [2], 32 µM. In addition, the CC10 in series [3] (veroe6/tmprss2) and in series [4] was over 50 µM in each case.
As to `O=C(NCC(F)(F)F)c1cc(Cl)c(F)cc1NS(=O)(=O)c1ccc(Oc2ccccc2Cl)cc1`, the CC50 was 5.65 µM in series [1] (setting [12]), over 10 µM in series [1] (setting [9]), 3.98 µM in series [5] (Vero E6 miRFP670 cells) and 1.9 µM in series [2].
With `CC[C@@H](Cc1nnn[nH]1)c1ccc(NC(=O)c2cc(Cl)cc(NC(=O)OCc3ccccc3)c2)cc1`, the CC50 in series [1] (setting [9]), in series [3] (setting [10]), in series [4] and in series [5] (Vero E6 miRFP670 cells) was over 50 µM in each case. Also, the CC10 in series [3] (veroe6/tmprss2) and in series [4] was over 50 µM in each case.
With `COc1cc(N[C@@H](C(=O)N2CCc3ccc(OC(F)(F)F)cc32)c2ccc(Cl)cc2)cc(OCCCC(=O)O)c1`, in series [3] (veroe6/tmprss2), the CC10 is > 10 µM and 7.237 µM. Moreover, the CC50 in series [3] (veroe6/tmprss2) was > 10 µM and 37.7 µM; in series [7] (setting [13]) it was 11.1 µM; in series [5] (vero c1008) it was > 50 µM and 19.7 µM and 11.3 µM; in series [2], 19 µM.
Consider `NCCc1cccc(NC(=O)[C@H]2[C@H]3CCCCC[C@H]3[C@H]2NC(=O)OCc2ccccc2)c1`, for which the CC50 in series [1] (setting [9]) is 7.53 µM; in series [3] (setting [10]), 4.88 µM; in series [4] it was 1.78 µM; in series [5] (Vero E6 miRFP670 cells) it was 7.48 µM. The CC10 in series [3] (veroe6/tmprss2) is 0.282 µM; in series [4], 2.002 µM.
For the molecule `Cc1ccc(NC(=O)c2cc(Cl)cc(NC(=O)OCc3ccccc3)c2)cc1CN`, the CC50 in series [1] (setting [9]) came to 4.33 µM; in series [3] (setting [10]) it was 15 µM; in series [3] (veroe6/tmprss2), 15.2 µM; in series [4], 6.64 µM; in series [7] (setting [13]) it was 5.8 µM; in series [5] (Vero E6 miRFP670 cells), 5.18 µM. The CC10 in series [4] came to 8.104 µM.
For the molecule `COc1cc(N[C@@H](C(=O)c2c[nH]c3ccc(OC(F)(F)F)cc23)c2ccc(Cl)cc2OC)cc(S(C)(=O)=O)c1`, the CC50 is over 10 µM in series [3] (setting [10]), over 10 µM in series [4], 1.49 µM in series [7] (setting [13]) and 5 µM in series [2]. Moreover, the CC10 in series [4] was over 10 µM.
In the case of `C[C@@]1(O)[C@H](O)[C@@H](CO)O[C@H]1n1ccc2c(N)ncnc21` [BETA-2'-C-METHYL-7-DEAZA-ADENOSINE], the CC50 in series [1] (setting [12]) was 24.6 µM and > 200 µM; in series [3] (setting [10]), over 10 µM; in series [4], over 10 µM; in series [7] (setting [11]), over 50 µM; in series [7] (setting [12]), over 200 µM; in series [5] (Vero E6 miRFP670 cells), over 50 µM. The molecule also yielded a CC10 in series [4] of over 10 µM.

(Values after ChEMBL document CHEMBL5661955, “ASAP - In vitro cytotoxicity” (2024).)
